Measured values taken from US4465676A, “16α Halogen substituted 3,17β-dihydroxy steroidal estrogens” (priority 1980, dated 1984).

Key:
[1] = tested on: testosterone-estradiol binding globulin; assay: Binding to testosterone-estradiol binding globulin of human plasma
Source text: This protein contaminates most human tissue preparations, complicating the detection of sex steroid receptors.

[2] = target: T1, rat uterine cytosol (estrogen receptor) (Rattus norvegicus, UniProt P06211); assay: Binding to rat uterine cytosol, dextran-coated charcoal
T1 construct: incubated with cytoplasm from the uteri of rats; from tissue; host or cells: uterine cytosol of ovariectomized rats
T1 sequence (P06211 1-600): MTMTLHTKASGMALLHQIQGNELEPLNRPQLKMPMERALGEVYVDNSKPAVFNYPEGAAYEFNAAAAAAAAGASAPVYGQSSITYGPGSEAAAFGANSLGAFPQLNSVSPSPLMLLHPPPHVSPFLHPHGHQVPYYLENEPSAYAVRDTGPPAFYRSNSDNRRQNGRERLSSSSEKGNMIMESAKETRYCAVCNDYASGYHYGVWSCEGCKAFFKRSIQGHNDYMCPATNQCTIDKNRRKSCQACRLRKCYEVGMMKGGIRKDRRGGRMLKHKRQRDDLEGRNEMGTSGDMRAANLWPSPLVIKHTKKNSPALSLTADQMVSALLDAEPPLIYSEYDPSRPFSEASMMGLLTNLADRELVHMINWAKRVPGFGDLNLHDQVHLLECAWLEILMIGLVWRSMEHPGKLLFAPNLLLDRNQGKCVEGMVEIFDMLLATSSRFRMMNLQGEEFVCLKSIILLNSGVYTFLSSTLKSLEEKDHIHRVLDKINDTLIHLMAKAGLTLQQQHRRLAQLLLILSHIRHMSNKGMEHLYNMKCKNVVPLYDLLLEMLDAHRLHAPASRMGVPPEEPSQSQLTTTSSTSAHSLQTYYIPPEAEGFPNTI
Description: Metab. […] The homogenate was centrifuged at 4000 g for 10 minutes and the resulting supernatant for 60 minutes at 150,000 g. […] Samples were incubated for 4 hours at 0° to 2° C. Free steroid was removed by addition of 250 μl of a suspension of 0.5 percent dextran-coated charcoal. The tubes were mixed and then centrifuged at […] for 10 minutes.

[3] = target: T2, calf uterine estrogen receptor (Bos taurus, UniProt P49884); assay: Saturation and Scatchard analysis of the estrogen receptor from calf uterus; type: binding; details: calf uterine cytosol
T2 construct: Fresh calf uteri obtained from a slaughterhouse; from tissue; host or cells: calf uterus, 150,000 x g cytosol from lyophilized powder
T2 sequence (P49884 1-596): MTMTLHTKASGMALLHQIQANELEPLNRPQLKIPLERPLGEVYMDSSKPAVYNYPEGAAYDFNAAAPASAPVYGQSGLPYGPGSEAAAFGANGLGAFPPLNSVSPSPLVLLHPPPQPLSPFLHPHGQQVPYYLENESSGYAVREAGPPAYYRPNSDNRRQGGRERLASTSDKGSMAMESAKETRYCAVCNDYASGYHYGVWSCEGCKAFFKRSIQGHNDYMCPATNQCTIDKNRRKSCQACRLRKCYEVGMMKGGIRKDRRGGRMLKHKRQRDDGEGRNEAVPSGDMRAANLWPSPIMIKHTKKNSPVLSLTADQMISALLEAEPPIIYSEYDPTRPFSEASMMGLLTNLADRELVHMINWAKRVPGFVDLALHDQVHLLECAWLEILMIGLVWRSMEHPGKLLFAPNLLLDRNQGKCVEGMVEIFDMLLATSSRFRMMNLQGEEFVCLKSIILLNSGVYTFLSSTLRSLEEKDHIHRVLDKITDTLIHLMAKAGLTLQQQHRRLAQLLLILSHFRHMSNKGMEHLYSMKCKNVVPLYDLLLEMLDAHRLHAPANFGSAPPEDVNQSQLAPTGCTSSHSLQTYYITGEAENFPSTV
Description: Fresh calf uteri obtained from a slaughterhouse were brought to the laboratory on ice, immediately trimmed of fat, and cut into small pieces; the pieces were frozen in liquid nitrogen and pulverized. The pulverized frozen tissue was lyophilized, and the desiccated powder was stored under vacuum in sealed vials at -80° C. The uterine powders were usually used within 1 month of pulverization. When needed, the powders were suspended in 0.1M Tris-HCl, pH 7.4/2.5 mM EDTA/5 mM dithiotreithol (TED buffer) at 2.5 mg/ml and homogenized at 0° C. in a Polytron homogenizer with two or three pulses at 15 seconds each. The homogenate was then centrifuged at 150,000×g for 60 minutes and the resulting supernatant (cytosol), containing approximately 1 mg of protein per ml, was used for binding studies on the estrogen receptor.
After the solvent was removed under a stream of N2, 250 μl of cytosol was added and the samples were incubated at 0°-2° C. overnight. The following morning, 250 μl of a 0.5% suspension of dextran-coated charcoal in TED buffer was added to the tubes which then were mixed and centrifuged at 5000×g for 10 minutes. The supernatant was assayed to determine bound radioactivity.
A saturation analysis of the estrogen receptor from calf uterus was conducted. […] Nonspecific binding, specific binding and total binding were determined in parallel incubations containing 0.7 μM DES.
A Scatchard analysis of the estrogen receptor from calf uterus was also conducted.

[4] = target: T3, estrogen receptor of human mammary tumors (Homo sapiens, UniProt P03372); assay: Estrogen receptor assay in human mammary tumor cytosol; type: binding; details: 1.5 mg/ml protein
T3 construct: 124 and 126
T3 sequence (P03372 1-595): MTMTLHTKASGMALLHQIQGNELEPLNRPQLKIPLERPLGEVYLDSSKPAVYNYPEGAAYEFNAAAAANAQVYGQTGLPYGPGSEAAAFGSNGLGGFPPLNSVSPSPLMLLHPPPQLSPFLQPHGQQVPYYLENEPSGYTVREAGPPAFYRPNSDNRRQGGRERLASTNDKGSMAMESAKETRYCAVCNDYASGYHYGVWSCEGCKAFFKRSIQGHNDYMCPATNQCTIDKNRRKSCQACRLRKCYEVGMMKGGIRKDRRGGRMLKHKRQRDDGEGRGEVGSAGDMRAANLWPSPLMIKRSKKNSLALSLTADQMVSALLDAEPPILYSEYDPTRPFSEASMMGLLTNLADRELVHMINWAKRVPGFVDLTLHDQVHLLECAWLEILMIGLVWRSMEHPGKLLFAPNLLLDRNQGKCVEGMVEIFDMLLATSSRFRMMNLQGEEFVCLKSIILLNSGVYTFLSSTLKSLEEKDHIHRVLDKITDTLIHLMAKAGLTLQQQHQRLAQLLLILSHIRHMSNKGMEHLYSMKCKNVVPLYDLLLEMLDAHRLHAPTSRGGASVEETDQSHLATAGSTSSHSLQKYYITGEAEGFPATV
Description: Extrogen receptor human mammary tumors were kept frozen in dry ice in a pulverized form. […] The final concentration of cytosolic protein used in the assay was 1.5 mg/ml.
A pool of two different estrogen receptor-positive mammary tumors was studied.

[5] = target: T4, estrogen receptors (rat uterine cytosol) (Rattus norvegicus, UniProt P06211); assay: Kinetic experiments and Scatchard analyses in rat uterine cytosol
T4 sequence (P06211 1-600): T1 sequence (P06211 1-600)

## C[C@]12CC[C@@H]3c4ccc(O)cc4CC[C@H]3[C@@H]1C[C@@H]([125I])[C@@H]2O [^125 I-E2, 16α-[^125 I]iodoestra-1,3,5(10)-triene-3,17β-diol]
[1]
  binding to testosterone-estradiol binding globulin: does not bind
[2]
  Radioactivity specifically bound, percent of added: 56%
[2]; 98 μg cytosol protein, 4 hours at 0° to 2° C., added 69,600 (125I) or 63,600 (3H) count/min
  Radioactivity Bound without DES: 42,600 count/min
[2]; bound without DES minus bound with DES
  Radioactivity specifically bound: 38,800 count/min
[2]; with 7×10^-7 M DES (nonspecific binding)
  Radioactivity Bound with DES: 3,800 count/min
[3]
  radioactivity bound (binding capacities): 122,000 cpm
[4]; mammary tumor pool no. 124
  receptor concentration found with the ligand: 24 fmol/mg of protein
[4]; mammary tumor pool no. 126
  receptor concentration found with the ligand: 72 fmol/mg
[5]
  Kd: 270 pM
